Reference: publication PMC4772543, “Immune responses to Mycobacterial heat shock protein 70 accompany self-reactivity to human BiP in rheumatoid arthritis” (Scientific Reports, 2016)

Key:
[1] = system: CD4+ T cells from MycHSP70-immunized HLA-DR4 transgenic mice; assay: Splenic CD4+ T cell proliferation from MycHSP70-immunized HLA-DR4 transgenic mice in response to epitopes; type: cell-based, mouse; settings: antigen 10 μg/mL, 72 h, irradiated splenocytes, 3H-thymidine
Experimental: Figure 5 Immunization of HLA-DR4 transgenic mice with MycHSP70. (A) HLA-DR4 transgenic mice were immunized with recombinant MycHSP70. Serum anti-MycHSP70 and anti-mouse BiP antibody titers were measured in the 21 days following the first immunization. (B) Splenic CD4+ T cell proliferation from MycHSP70-immunized HLA-DR4 transgenic mice in response to MycHSP70_287–306 and BiP336–355 epitopes. Proliferation was determined by the incorporation of [3]-H thymidine. Data were representative of at least three independent trials. ***p < 0.001.
HLA-DR4 transgenic mice were obtained from Taconic, immunized twice (day 0, 14) with 100 μg of MycHSP70 with the same volume of complete Freund’s adjuvant subcutaneously into the tails, and sacrificed on day 21. MACS-purified CD4^+ T cells (1 × 10^5/mL) were cultured with irradiated splenocytes (1 × 10^6/mL) and an antigen (10 μg/mL) in RPMI 1640 medium supplemented with 5% FCS, 2 mM L-glutamine, 100 U/ml penicillin, 100 μg/ml streptomycin, and 5 × 10^−5 M 2-mercaptoethanol in a humidified incubator at 37 °C, 5% CO2, for 72 h. ^3H-thymidine was pulsed to each well, cells were harvested after an 18-hour incubation, and analyzed with a scintillation counter.

[2] = system: PBMCs of HLA-DR4-positive RA patients; assay: Peptide-induced cytokine secretion from PBMCs (ELISA); type: cell-based, human
Experimental: Figure 3 MycHSP70_287–306 was a HLA-DR4-restricted epitope in RA. (A) The proliferation of PBMCs in RA patients (Shared epitope (SE) +/+ n = 12, SE +/− n = 22, SE−/− n = 9) and HDs (SE +/− n = 10) in response to MycHSP70_287–306. Proliferation was determined by the incorporation of [3]-H thymidine. The stimulation index (SI) was calculated using the following equation: (median thymidine uptake to an antigen)/(median thymidine uptake in the absence of an antigen). Horizontal line: the median. (B) Amino acid sequences of MycHSP70 (lower lines) and human BiP (upper lines) near the epitopes. Epitope sequences are indicated in bold letters. (C) Relationship between MycHSP70_287–306-induced proliferation and BiP336–355-induced proliferation in RA PBMCs (9 patients with SE +/+ and 14 patients with SE +/−). (D) Blockade of the MycHSP287–306-induced proliferation of PBMCs from HLA-DR4-positive RA patients (n = 6) using an anti-HLA-DR antibody. (E) The secretion of MycHSP287–306-induced IFN-γ from the PBMCs of HLA-DR4-positive HDs (n = 6) and RA patients (n = 8). (F) Blockade of MycHSP287–306-induced cytokine secretion from the PBMCs of HLA-DR4-positive RA patients (n = 6) using an anti-HLA-DR antibody. *p < 0.05, **p < 0.01, ***p < 0.001.
(§1) PBMCs (1 × 10^6/mL) isolated with Ficoll-Paque (GE Healthcare) were cultured in the presence or absence of each peptide (10 μg/mL) with RPMI 1640 medium supplemented with 10% human serum, 2 mM L-glutamine, 100 U/ml penicillin, and 100 μg/ml streptomycin in a humidified incubator at 37 °C, 5% CO2, for 96 hours. Cells were incubated for 18 h following a ^3H-thymidine pulse into each well and harvested using a semiautomated sample harvester. Counts per minute were measured with a scintillation counter. In some experiments, the culture supernatants were collected after a 72-hour incubation and cytokine concentrations were measured in the culture supernatants by a human IFN-γ high sensitivity ELISA kit and human IL-17 high sensitivity ELISA kit (eBioscience). […]

[3] = system: PBMCs from shared epitope (SE)-positive RA patients; assay: Proliferation of PBMCs from RA patients in response to MycHSP70-derived peptides (3H-thymidine uptake); type: cell-based, human
Experimental: Figure 3 MycHSP70_287–306 was a HLA-DR4-restricted epitope in RA. (A) The proliferation of PBMCs in RA patients (Shared epitope (SE) +/+ n = 12, SE +/− n = 22, SE−/− n = 9) and HDs (SE +/− n = 10) in response to MycHSP70_287–306. Proliferation was determined by the incorporation of [3]-H thymidine. The stimulation index (SI) was calculated using the following equation: (median thymidine uptake to an antigen)/(median thymidine uptake in the absence of an antigen). Horizontal line: the median. (B) Amino acid sequences of MycHSP70 (lower lines) and human BiP (upper lines) near the epitopes. Epitope sequences are indicated in bold letters. […]
as §1, with “Cells were incubated for 18 h following a ^3H-thymidine pulse into each well and harvested using a semiautomated sample harvester.” left out

[4] = peptide 10 μg/mL, supernatant after 72-hour incubation, ELISA

Question: DRTRKPFQSVIADTGISVSE [MycHSP70_287–306] was tested. Which “CD4+ T cell proliferation in response to peptide” value [1] did it give?
Answer: significant CD4^+ T cell proliferation was induced

Question: And the “peptide-induced IFN-γ and IL-17 secretion with anti-HLA-DR antibody” value ([2]; HLA-DR4-positive RA patients n = 6, anti-HLA DR antibody (L243) 10 μg/mL)?
Answer: blocked

Question: And the “secretion of interferon (IFN)-γ” value [2, 4]?
Answer: induced

Question: What about the “secretion of interleukin (IL)-17” value [2, 4] of the same sequence?
Answer: induced

Question: What about the “peptide-induced PBMC proliferation under blockade of HLA-DR” value ([3]; HLA-DR4-positive RA patients n = 6, anti-HLA DR monoclonal antibody (L243) 10 μg/mL) of the same sequence?
Answer: clearly inhibited

Question: And the “proliferation of PBMCs, mean stimulation index” value ([3]; screen of 43 MycHSP70-derived 20-mer peptides, 10 μg/mL, 96 hours, 3H-thymidine uptake, HLA-DR4-positive RA patients n = 20)?
Answer: highest proliferative responses
